Source: ChEMBL document CHEMBL5385931, “Microascones, Decahydrofluorene-Class Alkaloids from the Marine-Derived Fungus Microascus sp. SCSIO 41821” (J Nat Prod, 2024)
In brackets after ≈: the same amount, converted by molar mass.

Legend:
[1] = target: T1, Tyrosine-protein phosphatase non-receptor type 1 (Homo sapiens, UniProt P18031); test: Inhibition of human PTP1B
T1 sequence (P18031 whole entry): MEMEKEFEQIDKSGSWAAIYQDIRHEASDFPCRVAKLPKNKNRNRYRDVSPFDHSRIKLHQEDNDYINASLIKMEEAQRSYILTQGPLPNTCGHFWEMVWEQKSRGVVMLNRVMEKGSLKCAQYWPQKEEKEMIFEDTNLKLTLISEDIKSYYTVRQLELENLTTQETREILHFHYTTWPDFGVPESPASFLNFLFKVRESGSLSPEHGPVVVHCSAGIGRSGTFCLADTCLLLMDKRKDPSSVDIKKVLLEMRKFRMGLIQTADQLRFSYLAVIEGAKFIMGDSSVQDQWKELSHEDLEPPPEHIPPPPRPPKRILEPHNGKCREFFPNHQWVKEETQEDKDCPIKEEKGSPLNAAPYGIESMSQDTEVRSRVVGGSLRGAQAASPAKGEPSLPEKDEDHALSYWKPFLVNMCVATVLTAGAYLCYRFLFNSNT

[2] = target: T2, M-phase inducer phosphatase 2 (Homo sapiens, UniProt P30305); test: Inhibition of human CDC25B
T2 sequence (P30305 whole entry): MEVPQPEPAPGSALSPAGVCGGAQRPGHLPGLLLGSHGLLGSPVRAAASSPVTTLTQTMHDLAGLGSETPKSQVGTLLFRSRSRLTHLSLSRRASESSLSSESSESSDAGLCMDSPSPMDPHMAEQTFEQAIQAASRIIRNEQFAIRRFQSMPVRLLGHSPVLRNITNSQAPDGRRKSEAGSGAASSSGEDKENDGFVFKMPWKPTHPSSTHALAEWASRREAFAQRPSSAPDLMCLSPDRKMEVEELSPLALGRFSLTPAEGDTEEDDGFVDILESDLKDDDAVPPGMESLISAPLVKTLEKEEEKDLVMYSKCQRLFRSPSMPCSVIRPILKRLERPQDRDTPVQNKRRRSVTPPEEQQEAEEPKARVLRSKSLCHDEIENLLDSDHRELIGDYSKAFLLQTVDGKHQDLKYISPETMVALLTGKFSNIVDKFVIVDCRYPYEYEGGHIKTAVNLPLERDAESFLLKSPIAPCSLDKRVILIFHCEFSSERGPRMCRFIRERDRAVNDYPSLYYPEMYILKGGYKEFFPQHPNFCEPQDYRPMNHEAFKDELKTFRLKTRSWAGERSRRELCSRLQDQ

[3] = target: Receptor-type tyrosine-protein phosphatase F (Homo sapiens, UniProt P10586); test: Inhibition of human LAR
[4] = target: Receptor-type tyrosine-protein phosphatase S (Homo sapiens, UniProt Q13332); test: Inhibition of human PTPsigma
[5] = target: Dual specificity protein phosphatase 3 (Homo sapiens, UniProt P51452); test: Inhibition of human VHR
[6] = test system: NCI-H1975; test: Cytotoxicity against human NCI-H1975 cells assessed as cell growth inhibition by CCK8 assay
[7] = test system: HepG2; test: Cytotoxicity against human HepG2 cells assessed as cell growth inhibition by CCK8 assay
[8] = test system: Staphylococcus aureus; test: Antibacterial activity against Staphylococcus aureus ATCC 6538 assessed as bacterial growth inhibition by broth microdilution method; assay type: functional
[9] = test system: Staphylococcus aureus; test: Antibacterial activity against methicillin-resistant Staphylococcus aureus SC41993 assessed as bacterial growth inhibition by broth microdilution method; assay type: functional
[10] = test system: Escherichia coli; test: Antibacterial activity against Escherichia coli ATCC 25922 assessed as bacterial growth inhibition by broth microdilution method; assay type: functional
[11] = test system: Bacillus subtilis; test: Antibacterial activity against Bacillus subtilis BS01 assessed as bacterial growth inhibition by broth microdilution method; assay type: functional
[12] = test system: Streptococcus agalactiae; test: Antibacterial activity against Streptococcus agalactiae ATCC 13813 assessed as bacterial growth inhibition by broth microdilution method; assay type: functional
[13] = test system: Bacillus amyloliquefaciens; test: Antibacterial activity against Bacillus amyloliquefaciens GDMCC 60233 assessed as bacterial growth inhibition by broth microdilution method; assay type: functional
[14] = test system: Streptococcus iniae; test: Antibacterial activity against Streptococcus iniae SC41992 assessed as bacterial growth inhibition by broth microdilution method; assay type: functional

Sequence of Receptor-type tyrosine-protein phosphatase F (P10586 whole entry): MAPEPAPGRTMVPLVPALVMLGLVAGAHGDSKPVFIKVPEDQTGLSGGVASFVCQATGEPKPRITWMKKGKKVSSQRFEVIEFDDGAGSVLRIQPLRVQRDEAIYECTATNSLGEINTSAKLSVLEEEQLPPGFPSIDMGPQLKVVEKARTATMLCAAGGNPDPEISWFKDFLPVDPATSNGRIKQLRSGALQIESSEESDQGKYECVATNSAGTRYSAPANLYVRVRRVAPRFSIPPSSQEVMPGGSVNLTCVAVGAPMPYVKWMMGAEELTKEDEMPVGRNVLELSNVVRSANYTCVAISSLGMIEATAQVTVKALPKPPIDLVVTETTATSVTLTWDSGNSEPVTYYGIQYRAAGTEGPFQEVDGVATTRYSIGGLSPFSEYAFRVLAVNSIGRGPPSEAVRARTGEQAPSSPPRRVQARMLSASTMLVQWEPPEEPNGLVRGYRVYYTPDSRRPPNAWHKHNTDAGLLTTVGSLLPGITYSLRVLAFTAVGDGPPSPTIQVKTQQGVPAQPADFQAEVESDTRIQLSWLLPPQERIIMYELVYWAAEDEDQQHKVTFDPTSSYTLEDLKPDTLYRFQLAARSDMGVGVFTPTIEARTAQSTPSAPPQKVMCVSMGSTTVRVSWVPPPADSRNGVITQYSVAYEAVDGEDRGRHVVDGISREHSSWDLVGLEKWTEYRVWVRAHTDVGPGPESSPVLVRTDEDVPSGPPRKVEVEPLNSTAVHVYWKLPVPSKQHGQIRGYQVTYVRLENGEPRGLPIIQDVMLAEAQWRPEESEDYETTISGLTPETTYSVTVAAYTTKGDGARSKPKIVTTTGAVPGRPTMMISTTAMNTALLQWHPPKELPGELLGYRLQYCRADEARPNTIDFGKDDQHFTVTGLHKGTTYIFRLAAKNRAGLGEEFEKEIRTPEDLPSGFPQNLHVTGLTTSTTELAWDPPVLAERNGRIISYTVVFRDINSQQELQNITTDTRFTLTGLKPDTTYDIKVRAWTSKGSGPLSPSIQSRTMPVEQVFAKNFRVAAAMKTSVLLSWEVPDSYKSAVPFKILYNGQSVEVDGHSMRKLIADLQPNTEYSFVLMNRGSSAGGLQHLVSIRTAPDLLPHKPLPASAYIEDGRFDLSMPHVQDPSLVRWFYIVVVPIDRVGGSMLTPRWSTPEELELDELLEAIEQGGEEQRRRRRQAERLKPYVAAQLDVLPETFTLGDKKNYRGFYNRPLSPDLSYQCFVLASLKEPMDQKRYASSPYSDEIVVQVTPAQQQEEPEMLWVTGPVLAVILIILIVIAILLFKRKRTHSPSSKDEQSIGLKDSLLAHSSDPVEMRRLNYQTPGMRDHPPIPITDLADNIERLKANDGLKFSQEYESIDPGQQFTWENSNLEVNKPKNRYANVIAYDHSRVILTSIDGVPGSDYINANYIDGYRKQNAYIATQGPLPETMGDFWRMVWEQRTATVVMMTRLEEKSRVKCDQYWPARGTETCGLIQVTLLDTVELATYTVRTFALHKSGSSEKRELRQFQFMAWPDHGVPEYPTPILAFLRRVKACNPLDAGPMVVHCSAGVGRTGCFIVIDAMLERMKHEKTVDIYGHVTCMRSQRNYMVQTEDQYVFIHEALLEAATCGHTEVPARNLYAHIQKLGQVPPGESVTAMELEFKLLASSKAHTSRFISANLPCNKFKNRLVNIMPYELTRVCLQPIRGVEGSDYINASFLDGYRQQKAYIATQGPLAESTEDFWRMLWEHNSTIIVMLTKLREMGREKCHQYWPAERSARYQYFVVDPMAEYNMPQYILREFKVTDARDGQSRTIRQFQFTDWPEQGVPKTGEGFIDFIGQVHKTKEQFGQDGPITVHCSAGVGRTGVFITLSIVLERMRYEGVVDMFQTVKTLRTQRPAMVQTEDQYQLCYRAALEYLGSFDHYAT
Sequence of Receptor-type tyrosine-protein phosphatase S (Q13332 whole entry): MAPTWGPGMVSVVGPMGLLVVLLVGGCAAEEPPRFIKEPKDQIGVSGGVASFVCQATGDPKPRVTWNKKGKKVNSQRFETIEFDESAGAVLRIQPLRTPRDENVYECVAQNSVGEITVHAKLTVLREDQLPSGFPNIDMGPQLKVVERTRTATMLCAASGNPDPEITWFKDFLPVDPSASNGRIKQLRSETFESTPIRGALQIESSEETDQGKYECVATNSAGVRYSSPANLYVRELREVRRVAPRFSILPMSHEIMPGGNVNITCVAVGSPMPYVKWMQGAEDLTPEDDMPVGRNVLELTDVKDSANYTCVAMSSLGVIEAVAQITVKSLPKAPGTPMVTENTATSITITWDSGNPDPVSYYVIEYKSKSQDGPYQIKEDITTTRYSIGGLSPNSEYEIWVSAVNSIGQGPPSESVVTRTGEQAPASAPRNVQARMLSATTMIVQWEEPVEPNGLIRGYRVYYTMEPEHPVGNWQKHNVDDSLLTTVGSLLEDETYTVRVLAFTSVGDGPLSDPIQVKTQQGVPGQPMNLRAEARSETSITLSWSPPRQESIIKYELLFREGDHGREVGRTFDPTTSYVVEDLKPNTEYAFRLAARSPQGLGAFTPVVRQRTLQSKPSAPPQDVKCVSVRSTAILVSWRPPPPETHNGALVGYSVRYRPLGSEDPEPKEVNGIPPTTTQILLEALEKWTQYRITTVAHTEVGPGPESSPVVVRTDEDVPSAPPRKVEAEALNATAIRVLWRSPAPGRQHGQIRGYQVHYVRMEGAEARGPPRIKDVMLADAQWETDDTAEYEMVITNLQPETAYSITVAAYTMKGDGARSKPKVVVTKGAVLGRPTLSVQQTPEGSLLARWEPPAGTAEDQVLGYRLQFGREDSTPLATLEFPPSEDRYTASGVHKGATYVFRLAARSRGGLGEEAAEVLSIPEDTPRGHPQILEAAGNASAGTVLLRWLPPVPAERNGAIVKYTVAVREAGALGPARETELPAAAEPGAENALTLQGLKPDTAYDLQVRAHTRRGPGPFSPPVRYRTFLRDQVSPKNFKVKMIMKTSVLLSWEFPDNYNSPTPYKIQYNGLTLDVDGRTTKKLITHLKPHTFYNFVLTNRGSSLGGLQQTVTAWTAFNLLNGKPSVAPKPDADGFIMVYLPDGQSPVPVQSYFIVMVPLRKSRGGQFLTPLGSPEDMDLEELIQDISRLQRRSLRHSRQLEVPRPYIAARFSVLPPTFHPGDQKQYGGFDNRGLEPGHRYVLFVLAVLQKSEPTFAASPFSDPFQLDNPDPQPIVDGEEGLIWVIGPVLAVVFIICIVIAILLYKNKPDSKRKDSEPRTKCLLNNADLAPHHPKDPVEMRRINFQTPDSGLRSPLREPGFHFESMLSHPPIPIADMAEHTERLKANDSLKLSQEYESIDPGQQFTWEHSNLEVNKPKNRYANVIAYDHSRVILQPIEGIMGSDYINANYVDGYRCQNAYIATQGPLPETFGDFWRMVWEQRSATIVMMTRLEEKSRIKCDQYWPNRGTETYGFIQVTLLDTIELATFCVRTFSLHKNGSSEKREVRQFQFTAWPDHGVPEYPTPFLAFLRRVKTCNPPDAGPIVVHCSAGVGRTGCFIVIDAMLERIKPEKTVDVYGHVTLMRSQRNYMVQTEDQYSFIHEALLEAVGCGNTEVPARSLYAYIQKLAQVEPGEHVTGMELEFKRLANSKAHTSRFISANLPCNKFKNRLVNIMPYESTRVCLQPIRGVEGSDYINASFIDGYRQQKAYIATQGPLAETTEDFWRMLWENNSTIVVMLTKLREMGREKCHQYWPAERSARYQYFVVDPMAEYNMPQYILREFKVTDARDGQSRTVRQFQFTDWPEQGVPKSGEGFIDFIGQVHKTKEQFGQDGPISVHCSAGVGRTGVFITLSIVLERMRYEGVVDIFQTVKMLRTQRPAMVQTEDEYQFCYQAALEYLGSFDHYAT
Sequence of Dual specificity protein phosphatase 3 (P51452 whole entry): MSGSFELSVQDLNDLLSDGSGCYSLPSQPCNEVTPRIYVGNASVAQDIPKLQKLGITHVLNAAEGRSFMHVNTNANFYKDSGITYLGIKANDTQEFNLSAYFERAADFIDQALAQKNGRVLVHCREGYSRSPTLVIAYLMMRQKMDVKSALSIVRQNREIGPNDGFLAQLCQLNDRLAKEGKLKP

With `CC1=C[C@@]2(C)[C@@H]3C(=O)[C@@]45C(=O)N[C@@](O)(Cc6ccc(cc6)O[C@@H]6[C@H]7[C@@H](C[C@H](CO)C[C@@H]7C)[C@H]1[C@H]63)[C@H]4CC=C(C)[C@@H]25` the IC50 [1] was > 200 µM, the IC50 [2] was > 200 µM and the IC50 [3] was > 200 µM. The IC50 [4] was > 200 µM, the IC50 [5] was > 200 µM and the IC50 [6] was 58 µM. For the same compound, the IC50 [7] was > 80 µM, the MIC [8] was > 100 µg/mL and the MIC [9] was > 100 µg/mL. For the same compound, the MIC [10] was 100 µg/mL (≈ 184 µM), the MIC [11] was 100 µg/mL (≈ 184 µM) and the MIC [12] was > 100 µg/mL. For the same compound, the MIC [13] was > 100 µg/mL and the MIC [14] was 100 µg/mL (≈ 184 µM).
